Data published in patent US20180110747A1, “USE OF THIA OXO COMPOUNDS FOR LOWERING APO C3” (Pronova Biopharma Norge AS, priority 2015, published 2018).
Values belong to the compound of their own block, whether it stands above or below them.

Tests used:
[1] = system: plasma apoC-III and other lipid parameters; assay: Example 25A Phase II clinical study, severe hypertriglyceridemia (TG above 500 mg/dL), 12 weeks; assay type: in vivo, human; conditions: 600 mg QD
Description: This study investigated patients with fasting plasma triglyceride levels above 500 mg/dL The primary objective of this study was to evaluate the efficacy of Compound A (Example 2) 600 mg once daily (QD) orally by assessment of the percentage change in triglycerides (TG) from baseline after 12 weeks of treatment. One of the secondary objectives was to evaluate the impact of Compound A on plasma levels of apoC-III.
(§1) This Phase II, multicenter, proof of concept study consisted of a 6- to 8-week screening period (which included a 4- or 6-week diet and lifestyle stabilization/washout period and a 2-week TG qualifying period), and a 12-week, double-blind, randomized, parallel group, placebo-controlled treatment period.
After confirmation of qualifying fasting TG values, eligible subjects entered the 12-week, randomized, double-blind treatment period. At Visit 4 (Week 0), subjects were randomly assigned in a 1:1 ratio to 1 of the following treatment groups: Compound A 600 mg QD or placebo QD.
Approximately 43 subjects per treatment group (approximately 86 subjects total) were to be randomized in this study. Stratification was by baseline TG level (≤700 mg/dL or >700 mg/dL), statin use at randomization, and gender.
(§2) The population for this study was men and women (women of childbearing potential were required to use adequate methods to avoid pregnancy) between the ages of 18 to 79 years of age, inclusive. Subjects on stable lipid-lowering statin therapy and subjects not on non-statin therapy were eligible to enroll in the study. Subjects were required to have an average fasting TG level ≥500 mg/dL, and ≤1500 mg/dL from Visit 2 and Visit 3 values or Visit 3 and Visit 3.1 values prior to randomization.
The ITT Population was the primary analysis population, All efficacy analyses were performed on the ITT Population.
(§3) Summary statistics (n, mean, standard deviation [SD], median, minimum, and maximum) for the baseline and post-baseline measurements, the percent changes, or changes from baseline were presented by treatment group and by visit for all efficacy variables analyzed.
The primary efficacy analysis was performed using an analysis of covariance (ANCOVA) model with treatment, gender, and the use of statin therapy at randomization as factors and baseline TG value as a covariate. The least-squares means, standard errors, and 2-tailed 95% confidence intervals (CIs) for each treatment group and for the comparison between Compound A and placebo were provided.
An ANCOVA model was used for the analysis of secondary efficacy variables with treatment, gender, and the use of statin therapy at randomization as factors and the baseline value of the respective efficacy variable as a covariate.
The population recruited for the current study included men (69.0%) and women (31.0%) with a mean age of 52.5 years. approximately 21% of subjects in both treatment groups received statin therapy through the study. All other non-statin lipid-altering medications were discontinued at screening. Mean compliance to study medication during the study was 96.5% for the placebo group and 99.9% for the Compound A 600 mg group.

apoC-III = assay: Hepatic apoC-III gene expression in APOE*3Leiden transgenic mice on Western-type diet; assay type: in vivo, mouse; conditions: 0.3 mmol/kg bw/day orally as admix to WTD, 4 weeks
Source text: The APOE*3Leiden transgenic mouse is expressing a variant of the human apolipoprotein E3 (APOE3), the APOE*3Leiden, in addition to the human apolipoprotein C1 (APOC1). […] In contrast to normal wild-type mice, the APOE*3Leiden transgenic mice are highly responsive to diet and hypolipidemic drugs affecting plasma VLDL and chylomicron levels (Van Vlijmen B et al, Diet-induced hyperlipoproteinemia and atherosclerosis in apolipoprotein E3-Leiden transgenic mice, J Clin Invest 1994; 93: 1403-1410; Groot PHE, et al. Quantitative assessment of aortic atherosclerosis in apoE3Leiden transgenic mice and its relationship to serum cholesterol exposure, Arterioscler Thromb Vase Biol 1996; 16: 926-933). Consequently, this model is appropriate to evaluate effects of lipid lowering drugs.
In this study, female APOE*3Leiden transgenic mice were put on a semi-synthetic Western-type diet (WTD; 15% cocoa butter, 40% sucrose and 0.25% cholesterol; all w/w). […]
Liver tissues were stored in RNA later (Qiagen) at −80° C. […] Each sample was measured in 3 parallels, and the results are presented as the mean value relative to control (WTD without addition), The fold change in gene expression was calculated by the ΔΔCt method, using Rplp0 as housekeeping gene and the mean of the control samples as calibrator.

[2] = system: plasma apoC-III and other lipid parameters; assay: Example 25B Phase II clinical study, mixed dyslipidemia (TG 200-499 mg/dL) on statins, 12 weeks; assay type: in vivo, human; conditions: 600 mg QD
Description: This study investigated patients with fasting plasma TG levels between 200 and 499 mg/dL and non-high density lipoprotein cholesterol (non-HDL-C) above 130 mg/dL already receiving treatment with statins. The primary objective of this study was to evaluate the efficacy of Compound A (Example 2) 600 mg QD orally by assessment of the percentage change in triglycerides non-HDL-C from baseline after 12. weeks of treatment. One of the secondary objectives was to evaluate the impact of Compound A on plasma levels of apoC-III.
as §1, with “TG and non-HDL-C” for “TG”
After confirmation of qualifying fasting TG and non-HDL-C values, eligible subjects entered the 12-week, randomized, double-blind treatment period. At Visit 4 (Week 0), subjects were randomly assigned in a 1:1 ratio to 1 of the following treatment groups: Compound A 600 mg QD or placebo QD.
as §2, with “non-statin lipid-lowering” for “non-statin”, “between […]” for “≥500 mg/dL,”, “[…] and non-HDL-C values above 130” for “≤1500”
The ITT Population was the primary analysis population. All efficacy analyses were performed on the ITT Population.
as §3
The primary efficacy analysis was performed using an ANCOVA model with randomization as factor and baseline non-HDL-C value as a covariate. The least-squares means, standard errors, and 2-tailed 95% CIs for each treatment group and for the comparison between Compound A and placebo were provided.
The primary efficacy analysis was based on the […].
The population recruited for the current study included men (58.4%) and women ([…]) with a mean age of 58.3 years. All subjects were required to be on statin therapy (with or without ezetimibe) during the study. All other non-statin lipid-altering medications were discontinued at screening. Mean compliance to study medication during the study was 97.2% for the placebo group and 95.3% for the Compound A group.
The baseline mean non-HDL-C level for the study population was 165.9 mg/dL; the baseline median TG level was 262.0 mg/dL.

Apo C-III = assay: Example 25C Phase Ib clinical study, hypercholesterolemia, 4 weeks; assay type: in vivo, human; conditions: 600 mg QD, male hypercholesterolemic subjects withdrawn from statin, statistically significant
Description: This study investigated subjects with fasting LDL-C of at least […] (˜97 mg/dl). The objective of the study was to determine the pharmacodynamics and lipid lowering effects of Compound A (Example 2) following 4 weeks of treatment in male, hypercholesterolemic subjects withdrawn from stable statin therapy.
The population for this study consisted of men between 18 and 65 years of any ethnic origin and with a BMI between 18.0 and 35.0 kg/m^2.
This Phase Ib study consisted of a 4-5 week screening period, and a 4 week double-blind, randomized, placebo-controlled treatment period.
All subjects had to be on lipid-lowering statin therapy for at least 3 months prior to the first screening visit, and at stable statin dose for at least 4 weeks prior to the first screening vist.
Statin treatment was withdrawn at the first screening visit, and remained withdrawn for the entire screening period. […]
Blood lipids were measured at the end of the screening period and after 4 weeks of treatment, Exploratory pharmacodynamic measurements included LDL-C, VLDL-C, TC, TO, HDL-C, Non-HDL-C, and Apo B. The impact of Compound A on Apo C-III was also measured.
Summary statistics for baseline is given as mean with coefficient of variance. The mean changes from baseline with 95% confidence intervals were presented by treatment group for efficacy variables analyzed. […]

[3] = In-vitro digestion studies in a bio relevant media; assay type: in vitro ADME
Source text: Examples 1-23 are exemplary and one skilled in the art would understand how to apply these general methods to arrive at other compounds within the scope of Formula (I). Compounds of the present disclosure may be in the form of a pharmaceutically acceptable salt or ester. For example, the compounds of Formula (I) may be in the form of esters, such as a phospholipid, a glyceride or a C1-C6-alkyl ester. In at least one embodiment, the ester is chosen from a glyceride or a C1-C6-alkyl ester. In at least one embodiment, the ester is chosen from a triglyceride, a 1,2 diglyceride, a 1,3-diglyceride, a 1-monoglyceride, a 2-monoglyceride, a methyl ester, an ethyl ester, a propyl ester, a isopropyl ester, a n-butyl ester and a tert-butyl ester. In at least one embodiment, the compound of Formula (I) is present as a methyl ester, an ethyl ester, an isopropyl ester, a n-butyl ester or a tert-butyl ester, for example as a methyl ester or an ethyl ester.

[4] = subjects with TG >500 mg/dl, 12 weeks
[5] = mixed dyslipidemia, TG = 200-499 mg/dl, on statin, 12 weeks

SMILES: CC/C=C\C/C=C\C/C=C\C/C=C\C/C=C\CCCCOC(CC)C(=O)O (centres unmarked) [Compound A, 2-((5Z,8Z,11Z,14Z,17Z)-icosa-5,8,11,14,17-pentaen-1-yloxy)butanoic acid]
LS mean percent change in apoC-III versus placebo ([1]; 12 weeks, ITT Population, 95% CI (−46.5, −22.8)): −34.7%
LS mean percent change in apoC-III vs baseline ([1]; 12 weeks, ITT Population, 95% CI (−47.5, −28.5)): −38.0%
median reduction in apoC-III ([1]; severe HTG patient population): 41%
ApoC-III, median % change from baseline [1, 4]: −41%
HDL-C, median % change from baseline [1, 4]: 24%
LDL-C, median % change from baseline [1, 4]: 43%
Non-HDL-C, median % change from baseline [1, 4]: −8%
TG, median % change from baseline [1, 4]: −51%
VLDL-C, median % change from baseline [1, 4]: −51%
effect on hepatic apoC-III expression compared with reference Compound 12 (apoC-III): more potent
hepatic apoC-III expression versus mice fed a standard WTD (FIG. 1) (apoC-III; P<0.05, Student T-test): significantly lower
LS mean percent change in ApoC-III vs placebo ([2]; 12-week completer population, 95% CI (−28.8, −12.7)): −20.8%
LS mean percent change in apoC-III vs baseline ([2]; 12-week completer population, 95% CI (−38.4, −26.6)): −32.5%
Apo B, median % change from baseline [2, 5]: −6%
ApoC-III, median % change from baseline [2, 5]: −35%
LDL-C, median % change from baseline [2, 5]: 0%
Non-HDL-C, median % change from baseline [2, 5]: −10%
TG, median % change from baseline [2, 5]: −43%
VLDL-C, median % change from baseline [2, 5]: −39%
median reduction in apoC-III ([2]; mixed dyslipidemic patient population): 35%
mean percent change in Apo C-III vs baseline (Apo C-III): −42%

hydrolysis in the gastrointestinal tract, from in-vitro digestion [3]: rapidly hydrolyzed
SMILES: CC/C=C\C/C=C\C/C=C\C/C=C\C/C=C\CCCCOC(CC)C(=O)OCC (centres unmarked) [Example 12, ethyl 2-((5Z,8Z,11Z,14Z,17Z)-icosa-5,8,11,14,17-pentaen-1-yloxy)butanoate]

hydrolysis in the gastrointestinal tract, from in-vitro digestion [3]: rapidly hydrolyzed
SMILES: CC/C=C\C/C=C\C/C=C\C/C=C\C/C=C\CCCCOC(CC)C(=O)OCCCC (centres unmarked) [Example 15, butyl 2-(((5Z,8Z,11Z,14Z,17Z)-icosa-5,8,11,14,17-pentaen-1-yl)oxy)butanoate]
